Test results from article PMC12396409, “Screening and hit evaluation of a microbial metabolite library against the pathogenic Plasmodium falciparum and Toxoplasma gondii parasites” (International Journal for Parasitology: Drugs and Drug …, 2025).
Read-outs that look alike come from different tables or passages of the source.

Assays:
[1] = test system: P. falciparum 3D7 parasites; experiment: P. falciparum growth inhibition assay, 1-cycle (72 h treatment), SYBR DNA staining (library screen at 2 μg/mL and dose-response); format: cell-based, Plasmodium falciparum; settings: for Screen (P. falciparum): 3D7, 72 h, DD from the 120 h timepoint
[2] = test system: P. falciparum 3D7 parasites; experiment: P. falciparum growth inhibition assay, 2-cycle (120 h treatment), delayed-death screen and dose-response; format: cell-based, Plasmodium falciparum; settings: for IC50: 3D7, read-out: IC50, P. falciparum, 120 h dose-response (delayed-death)
[3] = test system: T. gondii RH strain (RH-Tub-eYFP) tachyzoites; experiment: microbe, parasite or virus in culture; format: cell-based, Toxoplasma gondii; settings: 72 h; for activity in the screen against T. gondii: 2 μg/mL, active = ≥80 % growth inhibition; for percent parasite growth at 2 µg/mL / IC50: Toxoplasma gondii; for percent parasite growth at 2 µg/mL: T. gondii; for IC50: mean ± S.D., n ≥ 3, read-out: IC50 (μM), T. gondii (converted)
[4] = test system: HFF cells
[5] = test system: human neonatal foreskin fibroblast (NFF); experiment: Cytotoxicity screen at 5 μg/mL, resazurin dye assay, 96 h
[6] = test system: Leishmania; settings: ref Filho et al., 2024; cited from earlier work
[7] = Plasmodium falciparum, 3D7, 72 h treatment, mean ± S.D., n ≥ 3, read-out: IC50 (μM), P. falciparum

With `C=C[C@]1(C)C[C@@H](OC(=O)CS[C@@H]2C[C@H]3CC[C@@H](C2)N3C)[C@]2(C)[C@H](C)CC[C@]3(CCC(=O)[C@H]32)[C@@H](C)[C@@H]1O` [Retapamulin, reference compound] the “activity in the screen against P. falciparum” value ([1]; 2 μg/mL, 72 h, active = ≥80 % growth inhibition) was “active against both P. falciparum and T. gondii”, the activity at 2 µg/mL ([1]; Plasmodium falciparum, 3D7, P. falciparum, 72 h, parasite screen 2 μg/mL, % growth, replicate 1, read-out: Pf_72h_%Growth_Rep1) was 8.14% and the activity at 2 µg/mL ([1]; Plasmodium falciparum, 3D7, P. falciparum, 72 h, parasite screen 2 μg/mL, % growth, replicate 2, read-out: Pf_72h_%Growth_Rep2) was 8.89%. The IC50 [1, 7] was greater than 1 µM, the “Screen (P. falciparum)” value ([1]; library screen at 2 μg/mL) was “A, A” and the IC50 ([2]; Plasmodium falciparum) was 106 nM. For the same molecule, the activity at 2 µg/mL ([2]; Plasmodium falciparum, 3D7, P. falciparum, 120 h, parasite screen 2 μg/mL, % growth, replicate 1, read-out: Pf_120h_%Growth_Rep1) was -0.64%, the activity at 2 µg/mL ([2]; Plasmodium falciparum, 3D7, P. falciparum, 120 h, parasite screen 2 μg/mL, % growth, replicate 2, read-out: Pf_120h_%Growth_Rep2) was 3.58% and the “activity in the screen against T. gondii” value [3] was “active against both P. falciparum and T. gondii”. The percent parasite growth at 2 µg/mL ([3]; parasite screen 2 μg/mL, % growth, replicate 1, read-out: Tg_72h_%Growth_Rep1) was 2.49%, the percent parasite growth at 2 µg/mL ([3]; parasite screen 2 μg/mL, % growth, replicate 2, read-out: Tg_72h_%Growth_Rep2) was 9.45% and the IC50 ([3]; RH strain) was 0.085 µM. The “Screen (T. gondii)” value ([3]; library screen at 2 μg/mL, RH strain) was “A, A” and the selectivity index [4] was “greater than 100”.

With `CC(/C=C/C[C@@H](C)/C=C(C)/C=C/[C@@H]1OC(=O)C=C[C@@H]1C)=C\[C@@H](C)C(=O)[C@@H](C)[C@H](O)[C@@H](C)C/C(C)=C/C(=O)O` [leptomycin A] the “cytotoxic activity in the screen against fibroblasts” value [5] was “cytotoxic activity”.

`C=C[C@]1(C)C[C@@H](OC(=O)CSC(C)(C)CNC(=O)[C@H](N)C(C)C)[C@]2(C)[C@H](C)CC[C@]3(CCC(=O)[C@H]32)[C@@H](C)[C@@H]1O` [Valnemulin, reference compound] gave an activity at 2 µg/mL ([1]; Plasmodium falciparum, 3D7; P. falciparum, 2 μg/mL, 72 h; read-out: 1) Growth (%) at 72 h) of 50.1%, an activity at 2 µg/mL ([1]; Plasmodium falciparum, 3D7, P. falciparum, 72 h, screen at 2 μg/mL, replicate 1, read-out: Pf_72h_%Growth_Rep1) of 44.3% and an activity at 2 µg/mL ([1]; Plasmodium falciparum, 3D7, P. falciparum, 72 h, screen at 2 μg/mL, replicate 2, read-out: Pf_72h_%Growth_Rep2) of 55.9%. The IC50 [1, 7] was greater than 1 µM, the “Screen (P. falciparum)” value ([1]; library screen at 2 μg/mL) was “DD^” and the “delayed-death activity in the 120 h screen against P. falciparum” value ([2]; 2 μg/mL, criteria: ≥40 % growth at 72 h, ≤20 % growth at 120 h, at least 5-fold) was “meeting two of our three criteria for delayed-death activity”. The “3) Fold change (72 h/120 h)” value ([2]; P. falciparum, growth at 72 h / growth at 120 h, 2 μg/mL) was 3.7, the IC50 ([2]; Plasmodium falciparum) was 64 nM and the activity at 2 µg/mL ([2]; Plasmodium falciparum, 3D7; P. falciparum, 2 μg/mL, 120 h; read-out: 2) Growth (%) at 120 h) was 13.4%. The activity at 2 µg/mL ([2]; Plasmodium falciparum, 3D7, P. falciparum, 120 h, screen at 2 μg/mL, replicate 1, read-out: Pf_120h_%Growth_Rep1) was 15%, the activity at 2 µg/mL ([2]; Plasmodium falciparum, 3D7, P. falciparum, 120 h, screen at 2 μg/mL, replicate 2, read-out: Pf_120h_%Growth_Rep2) was 11.8% and the “activity in the screen against T. gondii” value [3] was “active against T. gondii”. It also gave a percent parasite growth at 2 µg/mL ([3]; screen at 2 μg/mL, replicate 1, read-out: Tg_72h_%Growth_Rep1) of 13.1%, a percent parasite growth at 2 µg/mL ([3]; screen at 2 μg/mL, replicate 2, read-out: Tg_72h_%Growth_Rep2) of 19.6% and an IC50 ([3]; RH strain) of 0.232 µM. The selectivity index ([4]; fibroblasts over T. gondii, for cryptopleurine the parasite is not stated) was “greater than 100”.

Work on Beauvericin yielded an IC50 ([1]; 3D7, 72 h treatment, mean ± S.D., n ≥ 3, read-out: IC50 (μM), P. falciparum) of 0.499 ± 0.029 µM, an IC50 ([1]; 72 h treatment, read-out: IC50, P. falciparum) of 0.5 µM and a Pf_72h_%Growth_Rep1 ([1]; library screen at 2 μg/mL, 72 h, % growth, replicate 1) of 7.31%. For the same molecule, the Pf_72h_%Growth_Rep2 ([1]; library screen at 2 μg/mL, 72 h, % growth, replicate 2) was 5.24%, the Pf_120h_%Growth_Rep1 ([2]; library screen at 2 μg/mL, 120 h, % growth, replicate 1) was 4.73% and the Pf_120h_%Growth_Rep2 ([2]; library screen at 2 μg/mL, 120 h, % growth, replicate 2) was 5.37%. For the same molecule, the Tg_72h_%Growth_Rep1 ([3]; library screen at 2 μg/mL, % growth, replicate 1) was 86.72%, the Tg_72h_%Growth_Rep2 ([3]; library screen at 2 μg/mL, % growth, replicate 2) was 89.12% and the “reported activity in Leishmania” value [6] was “around 1 μM”.
